Reference: patent US20130130241A1, “ANDROGEN RECEPTOR ISOFORMS AND METHODS” (Regents of the University of Minnesota, priority 2010, published 2013)

What was measured:
[1] = test system: patients with ADI prostate cancer; conditions: Phase II trial; Scher et al., 2010; cited from earlier work
[2] = test system: LNCaP cells expressing truncated AR isoforms; conditions: Watson et al., 2010; cited from earlier work
[3] = test system: 22Rv1 cells; conditions: Dehm et al., 2008; cited from earlier work
[4] = test system: androgen receptor target genes; conditions: 22Rv1 cells; Dehm et al., 2008; cited from earlier work
[5] = test system: androgen receptor; experiment: AR knock-down by siRNA in 22Rv1 cells, Western blot; format: cell-based, human; conditions: for expression of androgen receptor isoforms (Western blot): FIG. 3B
Procedure: FIG. 3. A) Schematic of androgen receptor mRNA isoforms expressed in 22Rv1 cells. DBD*, Exon 3-duplicated AR. B) 22Rv1 cells were electroporated with siRNAs targeted to Exons […]. androgen receptor and ERK-2 levels were determined. C) Rabbit antisera were raised against an Exon 2b-derived peptide. Equal amounts of 22Rv1 lysates were immunoprecipitated with crude antisera, or antibody purified on an immobilized Exon2b-peptide column, non-specific rabbit IgG, or a rabbit polyclonal antibody specific for the androgen receptor NTD. Western blots were performed with a mouse monoclonal antibody specific for the androgen receptor NTD.
We have investigated mechanisms of prostate cancer therapy resistance in cell- and xenograft-based models of prostate cancer progression with a focus on ligand-independent androgen receptor activation (Dehm and Tindall, 2006 J Biol Chem 281:27882-93; Dehm and Tindall, 2007 Mol Endocrinol 21:2855-63). One model of interest is the ADI 22Rv1 prostate cancer cell line, which was derived from an androgen-dependent CWR22 prostate cancer xenograft that relapsed during androgen depletion (Sramkoski et al., 1999 In Vitro Cell Dev Biol Anim 35:403-9). […] The Exon 1 and Exon 7 targeted siRNAs were purchased from Dharmacon, Inc. (Lafayette, Colo.). The sequences are as follows:
Truncated androgen receptor from 22Rv1 cells appears as a doublet in Western blot experiments (FIG. 3B). Because 3′ RACE experiments identified AR 1/2/2b and AR 1/2/3/2b as alternatively spliced androgen receptor isoforms in this cell line, we pursued the hypothesis that these two discrete bands represented AR 1/2/2b and AR 1/2/3/2b (Dehm et al., 2008 Cancer Res 68:5469-77). […] To this end, we tested siRNAs targeted to AR Exon 1, AR Exon 3, or AR Exon 7 (FIG. 3A).
Western blotting of CWR22Pc and 22Rv1 lysates with AR (Santa Cruz N-20), ERK-2 (Santa Cruz D-2), and ARV-7 (Precision Antibody #AG10008) antibodies was performed exactly as described (Dehm et al., 2008 Cancer Res 68:5469-77).

Molecule	share of CRPCa patients with robust decrease in serum PSA levels (at least 50%), stabilized bone disease, conversion of CTC counts to favorable [1]	androgen-independent growth of LNCaP cells expressing truncated AR isoforms [2]	androgen-independent proliferation of 22Rv1 cells [3]	androgen-independent expression of androgen receptor target genes [4]	expression of a ~80 kDa androgen receptor protein species [5]	expression of androgen receptor isoforms (Western blot) [5]
CNC(=O)c1ccc(N2C(=S)N(c3ccc(C#N)c(C(F)(F)F)c3)C(=O)C2(C)C)cc1F [MDV3100]	one-half	inhibit				
AR Exon 1-targeted siRNA: Dharmacon siRNA duplex targeted to AR Exon 1; sense SEQ ID NO: 1, antisense SEQ ID NO: 2 (sense CAAGGGAGGUUACACCAAAUU; antisense UUUGGUGUAACCUCCCUUGUU; listed as RNA, chemistry not given here)			inhibited	inhibited	knocked-down	knocked down expression of all androgen receptor isoforms
AR Exon 7-targeted siRNA: Dharmacon siRNA duplex targeted to AR Exon 7; sense SEQ ID NO: 3, antisense SEQ ID NO: 4 (sense GGAACUCGAUCGUAUCAUUUU; antisense AAUGAUACGAUCGAGUUCCUU; listed as RNA, chemistry not given here)			not	not		selectively knocked down expression of full-length androgen receptor
